Data: ChEMBL document CHEMBL4732113, “Exploiting the tolerant region I of the non-nucleoside reverse transcriptase inhibitor (NNRTI) binding pocket. Part 2: Discovery of diarylpyrimidine derivatives as potent HIV-1 NNRTIs with high Fsp values and favorable drug-like properties” (Eur J Med Chem, 2021)

What was measured:
[1] = system: Human immunodeficiency virus 1; assay: Antiviral activity against HIV1 3B infected in human MT4 cells assessed as reduction in virus-induced cytopathic effect by MTT assay; type: functional, organism-based; settings: Human immunodeficiency virus 1, 3B
[2] = system: Human immunodeficiency virus 1; assay: Antiviral activity against HIV1 RES056 harboring K103N/Y181C double mutant infected in human MT4 cells assessed as reduction in virus-induced cytopathic effect by MTT assay; type: functional, organism-based; settings: Human immunodeficiency virus 1, RES056, MT4; read-out: EC50
[3] = Cytotoxicity against human MT4 cells assessed as reduction in cell viability by MTT assay; type: cell-based; settings: MT4 cells
[4] = Selectivity index, ratio of CC50 for human MT4 cells to EC50 for antiviral activity against HIV 3B infected in human MT4 cells; type: toxicity, cell-based; settings: read-out: Ratio CC50/EC50
[5] = Selectivity index, ratio of CC50 for human MT4 cells to EC50 for antiviral activity against HIV HIV1 RES056 harboring K103N/Y181C double mutant infected in human MT4 cells; type: toxicity, cell-based; settings: read-out: Ratio CC50/EC50
[6] = system: Human immunodeficiency virus 1; assay: Antiviral activity against HIV1 harboring L100I mutant infected in human MT4 cells assessed as reduction in virus-induced cytopathic effect by MTT assay; type: functional, organism-based; settings: Human immunodeficiency virus 1, MT4
[7] = system: Human immunodeficiency virus 1; assay: Antiviral activity against HIV1 harboring K103N mutant infected in human MT4 cells assessed as reduction in virus-induced cytopathic effect by MTT assay; type: functional, organism-based; settings: Human immunodeficiency virus 1, MT4
[8] = system: Human immunodeficiency virus 1; assay: Antiviral activity against HIV1 harboring Y181C mutant infected in human MT4 cells assessed as reduction in virus-induced cytopathic effect by MTT assay; type: functional, organism-based; settings: Human immunodeficiency virus 1, MT4
[9] = system: Human immunodeficiency virus 1; assay: Antiviral activity against HIV1 harboring Y188L mutant infected in human MT4 cells assessed as reduction in virus-induced cytopathic effect by MTT assay; type: functional, organism-based; settings: Human immunodeficiency virus 1, MT4
[10] = system: Human immunodeficiency virus 1; assay: Antiviral activity against HIV1 harboring E138K mutant infected in human MT4 cells assessed as reduction in virus-induced cytopathic effect by MTT assay; type: functional, organism-based; settings: Human immunodeficiency virus 1, MT4
[11] = system: Human immunodeficiency virus 1; assay: Antiviral activity against HIV1 harboring F227L/V106A mutant infected in human MT4 cells assessed as reduction in virus-induced cytopathic effect by MTT assay; type: functional, organism-based; settings: Human immunodeficiency virus 1, MT4
[12] = target: Human immunodeficiency virus type 1 reverse transcriptase (Human immunodeficiency virus 1, UniProt Q72547); assay: Inhibition of HIV1 reverse transcriptase assessed as reduction in biotin-dUTP incorporation into template incubated for 1 hr by ELISA

## Cc1cc(C#N)cc(C)c1Oc1ccnc(Nc2ccc(CN3CCCN(S(C)(=O)=O)CC3)cc2)n1
[1]; read-out: EC50
  EC50: 79 nM
[2]
  EC50: > 7850 nM
[3]
  CC50: 7850 nM
[4]
  selectivity ratio: 100
[5]
  selectivity ratio: < 1

## Cc1cc(/C=C/C#N)cc(C)c1Oc1ccnc(Nc2ccc(CN3CCSCC3)cc2)n1
[1]; read-out: EC50
  EC50: 4.7 nM
[1]; read-out: pEC50 (converted)
  EC50: 4.68 nM
[2]
  EC50: 3560 nM
[3]
  CC50: 14900 nM
[4]
  selectivity ratio: 3160
[5]
  selectivity ratio: 4
[6]
  EC50: 24 nM
[7]
  EC50: 4.4 nM
[8]
  EC50: 99 nM
[9]
  EC50: 4280 nM
[10]
  EC50: 25 nM
[11]
  EC50: 280 nM
[12]
  IC50: 62 nM

## C=CC(=O)N1CCN(Cc2ccc(Nc3nccc(Oc4c(C)cc(C#N)cc4C)n3)cc2)CC1
[1]; read-out: EC50
  EC50: 56 nM
[1]; read-out: pEC50 (converted)
  EC50: 56.2 nM
[2]
  EC50: > 7580 nM
[3]
  CC50: 7580 nM
[4]
  selectivity ratio: 134
[5]
  selectivity ratio: < 1
[12]
  IC50: 160 nM

## Cc1cc(/C=C/C#N)cc(C)c1Oc1ccnc(Nc2ccc(CN3CCCN(S(C)(=O)=O)CC3)cc2)n1
[1]; read-out: EC50
  EC50: 27 nM
[2]
  EC50: > 17400 nM
[3]
  CC50: 17400 nM
[4]
  selectivity ratio: 644
[5]
  selectivity ratio: < 1

## Cc1cc(C#N)cc(C)c1Oc1ccnc(Nc2ccc(CN3CCSCC3)cc2)n1
[1]; read-out: EC50
  EC50: 28 nM
[2]
  EC50: > 24000 nM
[3]
  CC50: 24000 nM
[4]
  selectivity ratio: 847
[5]
  selectivity ratio: < 1

## Cc1cc(/C=C/C#N)cc(C)c1Oc1ccnc(Nc2ccc(CN3CCCN(S(=O)(=O)N(C)C)CC3)cc2)n1
[1]; read-out: EC50
  EC50: 21 nM
[1]; read-out: pEC50 (converted)
  EC50: 20.9 nM
[2]
  EC50: > 3900 nM
[3]
  CC50: 3900 nM
[4]
  selectivity ratio: 182
[5]
  selectivity ratio: < 1
[12]
  IC50: 94 nM

## Cc1cc(/C=C/C#N)cc(C)c1Oc1ccnc(Nc2ccc(CN3CCN(S(=O)(=O)C(C)C)CC3)cc2)n1
[1]; read-out: EC50
  EC50: 5.6 nM
[2]
  EC50: > 3810 nM
[3]
  CC50: 3810 nM
[4]
  selectivity ratio: 685
[5]
  selectivity ratio: < 1
[6]
  EC50: 25 nM
[7]
  EC50: 8.5 nM
[8]
  EC50: 69 nM
[9]
  EC50: > 3810 nM
[10]
  EC50: 36 nM
[11]
  EC50: 230 nM

## Cc1cc(C#N)cc(C)c1Oc1ccnc(Nc2ccc(CN3CCN(S(=O)(=O)C(C)C)CC3)cc2)n1
[1]; read-out: EC50
  EC50: 30 nM
[1]; read-out: pEC50 (converted)
  EC50: 30.2 nM
[2]
  EC50: > 4540 nM
[3]
  CC50: 4540 nM
[4]
  selectivity ratio: 152
[5]
  selectivity ratio: < 1
[12]
  IC50: 73 nM

## Cc1cc(C#N)cc(C)c1Oc1ccnc(Nc2ccc(CN3CCN(S(=O)(=O)N(C)C)CC3)cc2)n1
[1]; read-out: EC50
  EC50: 48 nM
[2]
  EC50: > 4460 nM
[3]
  CC50: 4460 nM
[4]
  selectivity ratio: 93
[5]
  selectivity ratio: < 1

## CCS(=O)(=O)N1CCN(Cc2ccc(Nc3nccc(Oc4c(C)cc(C#N)cc4C)n3)cc2)CC1
[1]; read-out: EC50
  EC50: 17 nM
[2]
  EC50: > 5240 nM
[3]
  CC50: 5240 nM
[4]
  selectivity ratio: 310
[5]
  selectivity ratio: < 1

## Cc1cc(C#N)cc(C)c1Oc1ccnc(Nc2ccc(CN3CC[S+]([O-])CC3)cc2)n1
[1]; read-out: EC50
  EC50: 17 nM
[2]
  EC50: > 54700 nM
[3]
  CC50: 54700 nM
[4]
  selectivity ratio: 3250
[5]
  selectivity ratio: < 1

## Cc1cc(C#N)cc(C)c1Oc1ccnc(Nc2ccc(CN3CCS(=O)(=O)CC3)cc2)n1
[1]; read-out: EC50
  EC50: 14 nM
[1]; read-out: pEC50 (converted)
  EC50: 14.1 nM
[2]
  EC50: > 53200 nM
[3]
  CC50: 53200 nM
[4]
  selectivity ratio: 3850
[5]
  selectivity ratio: < 1
[12]
  IC50: 78 nM

## Cc1cc(C#N)cc(C)c1Oc1ccnc(Nc2ccc(CN3CCCN(S(=O)(=O)N(C)C)CC3)cc2)n1
[1]; read-out: EC50
  EC50: 160 nM
[2]
  EC50: > 4190 nM
[3]
  CC50: 4190 nM
[4]
  selectivity ratio: 26
[5]
  selectivity ratio: < 1

## Cc1cc(/C=C/C#N)cc(C)c1Oc1ccnc(Nc2ccc(CN3CCCN(S(=O)(=O)C(C)C)CC3)cc2)n1
[1]; read-out: EC50
  EC50: 19 nM
[2]
  EC50: > 4640 nM
[3]
  CC50: 4640 nM
[4]
  selectivity ratio: 244
[5]
  selectivity ratio: < 1

## Cc1cc(/C=C/C#N)cc(C)c1Oc1ccnc(Nc2ccc(CN3CCN(S(=O)(=O)N(C)C)CC3)cc2)n1
[1]; read-out: EC50
  EC50: 4.5 nM
[2]
  EC50: > 3070 nM
[3]
  CC50: 3070 nM
[4]
  selectivity ratio: 677
[5]
  selectivity ratio: < 1
[6]
  EC50: 29 nM
[7]
  EC50: 11 nM
[8]
  EC50: 92 nM
[9]
  EC50: > 3070 nM
[10]
  EC50: 34 nM
[11]
  EC50: > 3070 nM

## Cc1cc(C#N)cc(C)c1Oc1ccnc(Nc2ccc(CN3CCN(S(=O)(=O)C4CC4)CC3)cc2)n1
[1]; read-out: EC50
  EC50: 25 nM
[2]
  EC50: > 4430 nM
[3]
  CC50: 4430 nM
[4]
  selectivity ratio: 174
[5]
  selectivity ratio: < 1

## Cc1cc(/C=C/C#N)cc(C)c1Oc1ccnc(Nc2ccc(CN3CCN(S(=O)(=O)C4CC4)CC3)cc2)n1
[1]; read-out: EC50
  EC50: 6.1 nM
[2]
  EC50: > 4350 nM
[3]
  CC50: 4350 nM
[4]
  selectivity ratio: 717
[5]
  selectivity ratio: < 1
[6]
  EC50: 17 nM
[7]
  EC50: 6.8 nM
[8]
  EC50: 64 nM
[9]
  EC50: > 4350 nM
[10]
  EC50: 31 nM
[11]
  EC50: 360 nM

## O=C1Nc2ccc(Cl)cc2[C@@](C#CC2CC2)(C(F)(F)F)O1 [EFAVIRENZ]
[1]; read-out: EC50
  EC50: 2.8 nM
[1]; read-out: pEC50 (converted)
  EC50: 2.82 nM
[2]
  EC50: 340 nM
[3]
  CC50: > 6340 nM
[8]
  EC50: 5 nM
[9]
  EC50: 260 nM

## Cc1cc(C#N)cc(C)c1Oc1nc(Nc2ccc(C#N)cc2)nc(N)c1Br [ETRAVIRINE]
[1]; read-out: EC50
  EC50: 4.2 nM
[1]; read-out: pEC50 (converted)
  EC50: 4.17 nM
[2]
  EC50: 61 nM
[3]
  CC50: > 4590 nM
[6]
  EC50: 8.3 nM
[8]
  EC50: 15 nM
[9]
  EC50: 19 nM
[10]
  EC50: 9.8 nM
[11]
  EC50: 26 nM

## Nc1ccn([C@@H]2CS[C@H](CO)O2)c(=O)n1 [LAMIVUDINE]
[1]; read-out: EC50
  EC50: 6000 nM
[2]
  EC50: 6830 nM
[3]
  CC50: > 87200 nM
[4]
  selectivity ratio: > 15
[5]
  selectivity ratio: > 13
[6]
  EC50: 1460 nM
[7]
  EC50: 2740 nM
[8]
  EC50: 3200 nM
[9]
  EC50: 2710 nM
[10]
  EC50: 6110 nM
[11]
  EC50: 2360 nM

## Cc1ccnc2c1NC(=O)c1cccnc1N2C1CC1 [NEVIRAPINE]
[1]; read-out: EC50
  EC50: 150 nM
[2]
  EC50: > 15000 nM
[3]
  CC50: > 15000 nM
[6]
  EC50: 620 nM
[8]
  EC50: 5050 nM
[9]
  EC50: 9070 nM
[10]
  EC50: 170 nM
[11]
  EC50: 8040 nM

## Cc1cn([C@H]2C[C@H](N=[N+]=[N-])[C@@H](CO)O2)c(=O)[nH]c1=O [ZIDOVUDINE]
[1]; read-out: EC50
  EC50: 26 nM
[2]
  EC50: 28 nM
[3]
  CC50: > 7480 nM
[4]
  selectivity ratio: > 293
[5]
  selectivity ratio: > 267
[6]
  EC50: 7.1 nM
[7]
  EC50: 19 nM
[8]
  EC50: 13 nM
[9]
  EC50: 8.6 nM
[10]
  EC50: 36 nM
[11]
  EC50: 8.7 nM
